Assay results from US10266497B2 (ABIDE THERAPEUTICS, INC., priority 2017, dated 2019).

What was measured:
[1] = target: T1, FAAH (Homo sapiens, UniProt O00519); assay: In vitro competitive activity-based protein profiling, FAAH, human; settings: for inhibition at 1 µM: read-out: FAAH % inh. 1 μM (human)
T1 sequence (O00519 1-579): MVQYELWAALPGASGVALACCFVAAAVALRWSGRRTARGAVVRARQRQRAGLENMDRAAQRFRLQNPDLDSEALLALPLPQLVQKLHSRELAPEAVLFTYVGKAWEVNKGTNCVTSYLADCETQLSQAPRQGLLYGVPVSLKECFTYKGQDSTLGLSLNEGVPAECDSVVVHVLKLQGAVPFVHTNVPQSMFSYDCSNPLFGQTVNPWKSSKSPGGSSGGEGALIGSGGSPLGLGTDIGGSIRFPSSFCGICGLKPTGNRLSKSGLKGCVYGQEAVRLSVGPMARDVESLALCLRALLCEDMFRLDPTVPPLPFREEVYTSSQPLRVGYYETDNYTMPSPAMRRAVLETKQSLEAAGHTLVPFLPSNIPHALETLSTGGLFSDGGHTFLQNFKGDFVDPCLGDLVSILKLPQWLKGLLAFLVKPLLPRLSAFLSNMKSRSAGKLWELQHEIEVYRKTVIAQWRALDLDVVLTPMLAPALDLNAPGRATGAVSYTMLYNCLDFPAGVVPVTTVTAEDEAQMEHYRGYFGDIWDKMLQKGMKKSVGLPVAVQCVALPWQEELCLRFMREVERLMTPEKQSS

[2] = target: T2, MAGL (Mus musculus, UniProt O35678); assay: In vitro competitive activity-based protein profiling, MAGL, mouse; settings: read-out: MAGL % inh. 1 μM (mouse)
T2 sequence (O35678 1-303): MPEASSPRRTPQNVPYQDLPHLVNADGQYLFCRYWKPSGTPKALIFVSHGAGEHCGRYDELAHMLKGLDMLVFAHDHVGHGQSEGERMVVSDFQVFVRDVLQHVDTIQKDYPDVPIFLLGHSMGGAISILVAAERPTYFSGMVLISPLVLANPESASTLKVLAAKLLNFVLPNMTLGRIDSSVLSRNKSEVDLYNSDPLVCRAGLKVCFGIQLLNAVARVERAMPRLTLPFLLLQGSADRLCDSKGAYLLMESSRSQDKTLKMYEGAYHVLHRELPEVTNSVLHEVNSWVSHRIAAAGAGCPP

[3] = target: T3, FAAH (Mus musculus, UniProt O08914); assay: In vitro competitive activity-based protein profiling, FAAH, mouse; settings: read-out: FAAH % inh. 1 μM (mouse)
T3 sequence (O08914 1-579): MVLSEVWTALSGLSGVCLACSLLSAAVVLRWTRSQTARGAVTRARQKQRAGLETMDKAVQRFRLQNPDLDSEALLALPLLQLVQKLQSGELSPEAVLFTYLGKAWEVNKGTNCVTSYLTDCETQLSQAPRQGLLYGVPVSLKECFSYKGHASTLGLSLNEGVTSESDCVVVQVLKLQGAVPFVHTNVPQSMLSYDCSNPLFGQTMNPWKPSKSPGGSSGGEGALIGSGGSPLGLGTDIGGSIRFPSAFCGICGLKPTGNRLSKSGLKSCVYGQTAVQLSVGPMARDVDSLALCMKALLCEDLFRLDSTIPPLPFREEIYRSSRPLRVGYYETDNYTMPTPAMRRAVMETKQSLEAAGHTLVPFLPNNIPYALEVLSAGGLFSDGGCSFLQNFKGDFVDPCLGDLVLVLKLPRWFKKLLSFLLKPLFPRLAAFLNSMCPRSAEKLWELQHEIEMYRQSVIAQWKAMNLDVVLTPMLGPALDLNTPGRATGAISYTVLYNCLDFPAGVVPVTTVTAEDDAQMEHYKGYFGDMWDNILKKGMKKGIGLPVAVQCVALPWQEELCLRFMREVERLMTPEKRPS

[4] = target: T4, MAGL (Homo sapiens, UniProt Q99685); assay: In vitro competitive activity-based protein profiling, MAGL, human; settings: for inhibition at 1 µM: read-out: MAGL % inh. 1 μM (human)
T4 sequence (Q99685 1-303): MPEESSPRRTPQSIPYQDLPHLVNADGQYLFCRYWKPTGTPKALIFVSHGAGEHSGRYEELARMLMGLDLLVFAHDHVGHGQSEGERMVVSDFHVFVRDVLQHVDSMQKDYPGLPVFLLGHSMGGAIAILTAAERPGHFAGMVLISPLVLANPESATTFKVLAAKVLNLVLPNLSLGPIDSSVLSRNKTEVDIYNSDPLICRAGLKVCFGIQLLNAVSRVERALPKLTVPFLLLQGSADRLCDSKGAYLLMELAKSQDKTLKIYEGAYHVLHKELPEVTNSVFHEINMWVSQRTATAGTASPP

inhibition at 1 µM [1] [%]	inhibition at 1 µM [2] [%]	inhibition at 1 µM [3] [%]	inhibition at 1 µM [4] [%]	IC50 [1] [nM]	IC50 [4] [nM]	SMILES
0 to 25	> 75	0 to 25	> 75	–	–	Cc1ccc(CN2CCC3(CCN(C(=O)n4ccc(C(=O)O)n4)CC3)C2)cc1Cl [Example 154, 1-(2-(3-chloro-4-methylbenzyl)-2,8-diazaspiro[4.5]decane-8-carbonyl)-1H-pyrazole-3-carboxylic acid]
0 to 25	25 to 50	50 to 75	50 to 75	–	–	O=C(O)c1ccn(C(=O)N2CC3CN(Cc4cccc(C(F)(F)F)c4)CC3C2)n1 (centres unmarked) [Example 122, 1-(5-(3-(trifluoromethyl)benzyl)octahydro-pyrrolo[3,4-c]pyrrole-2-carbonyl)-1H-pyrazole-3-carboxylic acid]
0 to 25	0 to 25	0 to 25	25 to 50	–	–	O=C(O)c1ccn(C(=O)N2CCN(Cc3cccc(Oc4cnccn4)c3)CC2)n1 [Example 60]
25 to 50	> 75	0 to 25	> 75	1000 to 10000	–	O=C(O)c1ccn(C(=O)N2CCN(Cc3ccc(N4CCCC4)cc3C(F)(F)F)CC2)n1 [Example 167, 1-(4-(4-(pyrrolidin-1-yl)-2-(trifluoromethyl)benzyl)piperazine-1-carbonyl)-1H-pyrazole-3-carboxylic acid]
0 to 25	> 75	0 to 25	> 75	1000 to 10000	–	O=C(O)c1ccn(C(=O)N2CCC3(CCN(Cc4ccc(C(F)(F)F)cc4Cl)C3)CC2)n1 [Example 77, 1-(2-(2-chloro-4-(trifluoromethyl)benzyl)-2,8-diazaspiro[4.5]decane-8-carbonyl)-1H-pyrazole-3-carboxylic acid]
0 to 25	50 to 75	50 to 75	> 75	–	–	O=C(O)c1ccn(C(=O)N2CCC3(CCN(Cc4ccc(Oc5ccc(Cl)cc5)cc4)C3)CC2)n1 [Example 75, 1-(2-(4-(4-chlorophenoxy)benzyl)-2,8-diazaspiro[4.5]decane-8-carbonyl)-1H-pyrazole-3-carboxylic acid]
> 75	> 75	> 75	> 75	1000 to 10000	100 to 1000	O=C(O)c1nn(C(=O)N2CC3CN(Cc4ccc(-c5cnc6ccccn56)cc4C(F)(F)F)CC3C2)cc1Cl (centres unmarked) [Example 20, 4-Chloro-1-(5-(4-(imidazo[1,2-a]pyridin-3-yl)-2-(trifluoromethyl)benzyl)octahydropyrrolo[3,4-c]pyrrole-2-carbonyl)-1H-pyrazole-3-carboxylic Acid]
0 to 25	> 75	0 to 25	> 75	–	–	C[C@H]1CCCCN1c1cc(C(F)(F)F)ccc1CN1CCN(C(=O)n2ccc(C(=O)O)n2)CC1 [Example 110, (S)-1-(4-(2-(2-methylpiperidin-1-yl)-4-(trifluoromethyl)benzyl)piperazine-1-carbonyl)-1H-pyrazole-3-carboxylic acid]
0 to 25	> 75	50 to 75	> 75	–	–	O=C(O)c1ccn(C(=O)N2CCC3(CCN(C(=O)c4cc5ccc(C(F)(F)F)cc5s4)C3)CC2)n1 [Example 58, 1-(2-(6-(trifluoromethyl)benzo[b]thiophene-2-carbonyl)-2,8-diazaspiro[4.5]decane-8-carbonyl)-1H-pyrazole-3-carboxylic acid]
> 75	> 75	> 75	> 75	100 to 1000	–	CN(Cc1cc(Cl)ccc1C(F)(F)F)CC1CCN(C(=O)n2ccc(C(=O)O)n2)CC1 [Example 209, 1-(4-(((5-chloro-2-(trifluoromethyl)benzyl)(methyl)amino)methyl)piper-idine-1-carbonyl)-1H-pyrazole-3-carboxylic acid]
0 to 25	> 75	0 to 25	> 75	–	–	CN(Cc1ccc(Cl)c(N2CCCC2)c1)C1(C)CCN(C(=O)n2ccc(C(=O)O)n2)CC1 [Example 39, 1-(4-((4-chloro-3-(pyrrolidin-1-yl)benzyl)(methyl)amino)-4-methylpiperidine-1-carbonyl)-1H-pyrazole-3-carboxylic acid]
> 75	> 75	> 75	> 75	100 to 1000	–	O=C(O)c1ccn(C(=O)N2C[C@H]3C[C@H](OCc4cc(F)cc(Cl)c4)C[C@H]3C2)n1 [Example 53, 1-(trans-5-((3-chloro-5-fluorobenzyl)oxy)octahydrocyclopenta [c]pyrrole-2-carbonyl)-1H-pyrazole-3-carboxylic acid]
0 to 25	> 75	> 75	> 75	–	–	O=C(O)c1ccn(C(=O)N2CC3CN(Cc4cccc(-c5ccccc5)c4)CC3C2)n1 (centres unmarked) [Example 156, 1-(5-([1,1′-biphenyl]-3-ylmethyl)octahydropyrrolo[3,4-c]pyrrole-2-carbonyl)-1H-pyrazole-3-carboxylic acid]
0 to 25	> 75	50 to 75	> 75	1000 to 10000	–	O=C(O)c1ccn(C(=O)N2CCN(Cc3cccc(Oc4ccccc4Cl)c3)CC2)n1 [Example 85, 1-(4-(3-(2-chlorophenoxy)benzyl)piperazine-1-carbonyl)-1H-pyrazole-3-carboxylic acid]
> 75	> 75	> 75	> 75	100 to 1000	–	CN(Cc1cc(Cl)ccc1C(F)(F)F)CC1CCN(C(=O)n2cc(Cl)c(C(=O)O)n2)CC1 [Example 54, 4-chloro-1-(4-(((5-chloro-2-(trifluoromethyl)benzyl)(methyl)amino)methyl)piper-idine-1-carbonyl)-1H-pyrazole-3-carboxylic acid]
> 75	50 to 75	> 75	> 75	–	–	O=C(O)c1nn(C(=O)N2CC3CN(Cc4cc(Cl)ccc4Cl)CC3C2)cc1C(F)(F)F (centres unmarked) [Example 146, 1-(5-(2,5-dichlorobenzyl)octa-hydropyrrolo[3,4-c]pyrrole-2-carbonyl)-4-(trifluoromethyl)-1H-pyrazole-3-carboxylic acid]
0 to 25	> 75	50 to 75	> 75	–	–	O=C(O)c1ccn(C(=O)N2CCC3(CCN(Cc4cccc(-c5ccccc5)c4)C3)CC2)n1 [Example 73, 1-(2-([1,1′-biphenyl]-3-ylmethyl)-2,8-diazaspiro[4.5]decane-8-carbonyl)-1H-pyrazole-3-carboxylic acid]
0 to 25	> 75	0 to 25	> 75	–	–	O=C(O)c1ccn(C(=O)N2CCN(Cc3cccc(Oc4ccccn4)c3)CC2)n1 [Example 52]
